Among the test systems are NCI-H23 lung; K-562 leukemia; SNB-19 CNS; HCT-15 colon; SW-620 colon; IGROV1 ovarian; DU-145 prostate; SK-MEL-2 melanoma; LOX IMVI melanoma; OVCAR-4 ovarian.
Common to all, as to experiment: growth of human tumour cells (NCI), 48 h

Where “and” joins values, the source holds several entries; their conditions need not be identical. Equal entries are not always repeated.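 Step 1: Grow cells in 96-well plates. Step 2: Expose to compound for 48 hours at 5 concentrations. Step 3: Interpolate endpoints linearly; if unreached, use highest concentration. GI50 is the concentration that inhibits growth by half. The concentration for full growth arrest is given as TGI.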 Some results are limits rather than exact numbers.

Regarding `COc1ccc2c(c1)[n+](=O)c(C(=O)c1ccco1)c(C(F)(F)F)n2[O-]`, the GI50 in the experiment with NCI-H23 lung is 2020 nM; in the experiment with K-562 leukemia, 5.24 µM; in the experiment on SNB-19 CNS, 4.25 µM; in the experiment with HCT-15 colon, 1160 nM; in the experiment on SW-620 colon it was 3530 nM; in the experiment with IGROV1 ovarian, 2570 nM. In addition, the GI50 with DU-145 prostate was 2120 nM; with SK-MEL-2 melanoma it was 24 µM; in the experiment with LOX IMVI melanoma it was 1190 nM. For the same compound, the TGI in the experiment with NCI-H23 lung was 5.05 µM; in the experiment on K-562 leukemia it was above 100 µM; in the experiment with SNB-19 CNS, 45.5 µM; in the experiment with HCT-15 colon it was 4.6 µM; in the experiment on SW-620 colon, 34.5 µM; with IGROV1 ovarian, 20.4 µM. The TGI in the experiment with DU-145 prostate is 14.5 µM; in the experiment on SK-MEL-2 melanoma it was above 100 µM; in the experiment with LOX IMVI melanoma, 3.59 µM.
Turning to `CC1(C)CCC2=C(O1)c1ccccc1C(=O)C2=O`, the GI50 with NCI-H23 lung is 1570 nM; in the experiment on OVCAR-4 ovarian, 1.27 µM; in the experiment with SNB-19 CNS, 1.6 µM and 1.71 µM; in the experiment on HCT-15 colon, 739 nM and 537 nM; in the experiment with SW-620 colon, 1860 nM; with IGROV1 ovarian, 1800 nM and 1780 nM. Besides, the GI50 in the experiment on DU-145 prostate was 1710 nM; in the experiment with SK-MEL-2 melanoma, 2.05 µM; in the experiment with LOX IMVI melanoma it was 330 nM and 309 nM. For the same compound, the TGI is 3.91 µM and 1.09 µM with NCI-H23 lung; 2.53 µM and 5.78 µM in the experiment on OVCAR-4 ovarian; 3.08 µM and 3.11 µM in the experiment on SNB-19 CNS; 2.33 µM and 1.79 µM with HCT-15 colon; 3.93 µM and 1.09 µM with SW-620 colon; 3.55 µM and 3.39 µM in the experiment on IGROV1 ovarian. In addition, the TGI in the experiment on DU-145 prostate is 3.08 µM and 1.4 µM; in the experiment with SK-MEL-2 melanoma it was 4.13 µM and 3.07 µM; in the experiment with LOX IMVI melanoma, 1.31 µM and 0.934 µM.
On to `CN(C)c1ccc(N=C2C=CC(=[N+](C)C)C=C2)cc1`, for which the GI50 is 3520 nM in the experiment on NCI-H23 lung; 7.52 µM in the experiment on OVCAR-4 ovarian; 6.45 µM in the experiment on SNB-19 CNS; 23500 nM with HCT-15 colon; 6600 nM with SW-620 colon; 5350 nM in the experiment on IGROV1 ovarian. Further, the results for the GI50 with DU-145 prostate, with SK-MEL-2 melanoma and in the experiment on LOX IMVI melanoma were 22300 nM, 3.05 µM and 3860 nM, respectively. Also, the TGI is 29.4 µM in the experiment with NCI-H23 lung; 21.8 µM in the experiment on OVCAR-4 ovarian; above 100 µM in the experiment with SNB-19 CNS; above 100 µM with HCT-15 colon; 26.2 µM with SW-620 colon; 37.8 µM with IGROV1 ovarian. Further, the TGI in the experiment with DU-145 prostate is above 100 µM; with SK-MEL-2 melanoma, 13 µM; in the experiment on LOX IMVI melanoma it was 22.1 µM.
For `CCCCCCCCN(CCCCCCCC)CCCCCCNc1cc(OC)cc2cccnc12`, the GI50 with NCI-H23 lung was 2420 nM; with OVCAR-4 ovarian it was 5.62 µM; in the experiment with SNB-19 CNS, 10.5 µM; in the experiment with HCT-15 colon, 7680 nM; in the experiment on SW-620 colon, 2750 nM; in the experiment on IGROV1 ovarian, 13200 nM. Besides, the values for the GI50 in the experiment on DU-145 prostate, in the experiment with SK-MEL-2 melanoma and in the experiment with LOX IMVI melanoma were 2100 nM, 5.8 µM and 3790 nM, respectively. Also, the TGI in the experiment on NCI-H23 lung turned out to be 6.2 µM; in the experiment with OVCAR-4 ovarian it was 19.7 µM; with SNB-19 CNS, 24.2 µM; in the experiment on HCT-15 colon, 24 µM; with SW-620 colon, 10.1 µM; with IGROV1 ovarian, 29.4 µM. Also, the TGI with DU-145 prostate amounted to 4.52 µM; with SK-MEL-2 melanoma, 19.1 µM; with LOX IMVI melanoma, 13.5 µM.
Consider `CCN(CC)CCOc1ccccc1/C=C/c1noc2ccccc12`, for which the TGI was 26.9 µM in the experiment with NCI-H23 lung; 50.7 µM with OVCAR-4 ovarian; above 100 µM in the experiment with K-562 leukemia; 26.7 µM in the experiment with SNB-19 CNS; 22.4 µM with HCT-15 colon; 23 µM with SW-620 colon. Besides, the TGI was found to be 22.3 µM with IGROV1 ovarian, 29.1 µM in the experiment on DU-145 prostate and 16.7 µM with SK-MEL-2 melanoma.
Turning to `COc1ccc(C(=O)c2cc(OC)c(OC)c(OC)c2)cc1/C=C/C(=O)c1ccc(OC)c(OC)c1`, the GI50 in the experiment on NCI-H23 lung was 4130 nM; in the experiment on OVCAR-4 ovarian, 1.95 µM; with K-562 leukemia, 0.4 µM; in the experiment on SNB-19 CNS, 2.7 µM; in the experiment with HCT-15 colon, 428 nM; with SW-620 colon it was 321 nM. Also, the GI50 in the experiment with IGROV1 ovarian was 3080 nM; in the experiment with DU-145 prostate, 2210 nM; in the experiment with LOX IMVI melanoma, 559 nM. The TGI in the experiment with NCI-H23 lung, in the experiment on OVCAR-4 ovarian, with K-562 leukemia, with SNB-19 CNS, in the experiment on HCT-15 colon and in the experiment with SW-620 colon was above 100 µM throughout. Besides, the TGI is above 100 µM with IGROV1 ovarian, above 100 µM in the experiment with DU-145 prostate and 4.75 µM in the experiment with LOX IMVI melanoma.
As to `O=C(/C(=C\c1ccc([N+](=O)[O-])cc1)S(=O)Cc1ccc(F)cc1)c1ccc(F)cc1` (stereo not given), the GI50 is 1910 nM in the experiment with NCI-H23 lung; 1.84 µM with OVCAR-4 ovarian; 2.37 µM in the experiment with SNB-19 CNS; 1640 nM with HCT-15 colon; 1580 nM with SW-620 colon; 1690 nM in the experiment on IGROV1 ovarian. For the same compound, the GI50 is 1660 nM with DU-145 prostate, 2.2 µM with SK-MEL-2 melanoma and 1540 nM in the experiment on LOX IMVI melanoma. For the same compound, the TGI in the experiment with NCI-H23 lung was found to be 4.1 µM; with OVCAR-4 ovarian, 3.91 µM; in the experiment on SNB-19 CNS, 5.61 µM; in the experiment on HCT-15 colon it was 4.43 µM; with SW-620 colon, 3.13 µM; in the experiment on IGROV1 ovarian, 3.49 µM. Besides, the values for the TGI with DU-145 prostate, in the experiment on SK-MEL-2 melanoma and in the experiment with LOX IMVI melanoma were 3.06 µM, 5.47 µM and 3.05 µM, respectively.
On to `Cc1ccc2ncnc(N(CC(C)C)CC(C)C)c2c1`, for which the GI50 in the experiment with NCI-H23 lung is 11100 nM; in the experiment on OVCAR-4 ovarian, 19 µM; in the experiment with K-562 leukemia it was 3.69 µM; in the experiment on SNB-19 CNS, 20.5 µM; with HCT-15 colon, 17900 nM; in the experiment on IGROV1 ovarian, 23400 nM. In addition, the GI50 with DU-145 prostate is 15500 nM; in the experiment with SK-MEL-2 melanoma, 61.1 µM; in the experiment with LOX IMVI melanoma, 16200 nM. For the same compound, the TGI in the experiment on NCI-H23 lung was 28.5 µM; with OVCAR-4 ovarian it was 52.6 µM; with K-562 leukemia, 21.7 µM; with SNB-19 CNS it was 42.9 µM; in the experiment on HCT-15 colon it was 34.6 µM; in the experiment with IGROV1 ovarian, above 100 µM. Besides, the figures for the TGI with DU-145 prostate, in the experiment on SK-MEL-2 melanoma and with LOX IMVI melanoma were 32.4 µM, above 100 µM and 34.4 µM, respectively.

Source of the values: PubChem BioAssay (NCI).
